Data from US12559529B2, “NPY2 receptor agonists” (Boehringer Ingelheim International GmbH, priority 2019, dated 2026).
*1 amine or outer side, *2 acyl side, *3 side chain or, on linkers, in order; H or OH if unused. Where a SMILES comes first, the peptide text is derived from it. Side-chain parts run from the residue outwards. The star is where a group is joined. C18 diacid = O=C(O)CCCCCCCCCCCCCCCCC(=O)*; γGlu = O=C(O)[C@H](CCC(=O)[*:2])N[*:1]; Isovaleryl = CC(C)CC(=O)*; AEEA = NCCOCCOCC(=O)O

Biological target: T1, Human Neuropeptide Y2 Receptor (Homo sapiens, UniProt P49146)
T1 construct: purchased CHEMICON HTS066M
T1 sequence (P49146 1-381): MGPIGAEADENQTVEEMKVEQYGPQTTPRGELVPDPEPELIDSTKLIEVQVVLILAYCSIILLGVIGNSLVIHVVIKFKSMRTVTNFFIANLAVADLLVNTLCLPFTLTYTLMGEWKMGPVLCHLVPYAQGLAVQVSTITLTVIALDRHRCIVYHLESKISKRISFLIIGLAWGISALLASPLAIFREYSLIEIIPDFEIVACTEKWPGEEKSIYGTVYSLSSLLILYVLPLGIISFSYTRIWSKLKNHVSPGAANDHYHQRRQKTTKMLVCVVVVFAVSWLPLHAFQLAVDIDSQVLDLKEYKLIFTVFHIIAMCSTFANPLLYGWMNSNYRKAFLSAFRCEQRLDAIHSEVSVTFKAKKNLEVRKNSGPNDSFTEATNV
Experiment: Radioligand binding competition assay (RLB)
Details: Table 3; human 125I-PYY (1-36) 0.02 nM, Y2 receptor membranes; read-out: Ki
Method in brief: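 Membranes from cells expressing human Y2 receptor (0.5 μg protein/well) were incubated with radioligand and serially diluted peptides in 50 mM HEPES, 5 mM MgCl2, 1 mM CaCl2, 0.2% ovalbumin, pH 7.4, for 2 h at room temperature with shaking. Bound radioactivity was collected by filtration and counted; IC50 from sigmoidal nonlinear regression.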

Ki [nM] | SMILES
1.07 | CC(C)CC(=O)N[C@@H](C)C(=O)N1CCC[C@H]1C(=O)N[C@@H](C)C(=O)N[C@@H](CCCCNC(=O)COCCOCCNC(=O)COCCOCCNC(=O)CC[C@H](NC(=O)CCCCCCCCCCCCCCCCC(=O)O)C(=O)O)C(=O)N1CCC[C@H]1C(=O)N[C@@H](CCC(=O)O)C(=O)N[C@@H](C)C(=O)N[C@@H](CC(=O)O)C(=O)N[C@@H](C)C(=O)N[C@@H](CCC(=O)O)C(=O)N1CCC[C@H]1C(=O)N[C@@H](CCC(=O)O)C(=O)N[C@@H](CCC(=O)O)C(=O)N[C@@H](CC(C)C)C(=O)N[C@@H](CCC(N)=O)C(=O)N[C@@H](CCCNC(=N)N)C(=O)N[C@@H](Cc1ccc(O)cc1)C(=O)N[C@@H](Cc1ccc(O)cc1)C(=O)N[C@H](C(=O)N[C@@H](CO)C(=O)N[C@@H](CC(C)C)C(=O)N[C@@H](CCCNC(=N)N)C(=O)N[C@@H](Cc1c[nH]cn1)C(=O)N[C@@H](Cc1ccc(O)cc1)C(=O)N[C@@H](Cc1ccc(O)cc1)C(=O)N[C@@H](CC(N)=O)C(=O)N[C@@H](Cc1c[nH]c2ccccc12)C(=O)N[C@@H](CC(C)C)C(=O)N[C@H](C(=O)N[C@@H](CCCNC(=N)N)C(=O)N[C@@H](CCC(N)=O)C(=O)N[C@@H](CCCNC(=N)N)C(=O)N[C@@H](Cc1ccc(O)cc1)C(N)=O)[C@@H](C)O)C(C)C [Compound 207, N{alpha-4}-(3-methylbutanoyl)-N{epsilon-7}-[2-(2-{2-[2-(2-{2-[(4S)-4-carboxy-4-(17-carboxyheptadecanamido)butanamido]ethoxy}ethoxy)acetamido]ethoxy}ethoxy)acetamido]-[4A,6A,7K,9E,10A,13E,18Q,22V,28Y,30W,31L]hPYY (4-36)]
10.5 | CC[C@H](C)[C@H](NC(=O)[C@H](CCCCNC(=O)COCCOCCNC(=O)COCCOCCNC(=O)CC[C@H](NC(=O)CCCCCCCCCCCCCCCCC(=O)O)C(=O)O)NC(=O)[C@H](CCC(=O)O)NC(=O)[C@@H]1CCCN1C(=O)[C@H](C)NC(=O)CC(C)C)C(=O)N[C@@H](CCC(=O)O)C(=O)N[C@@H](CCC(=O)O)C(=O)N[C@@H](CCC(=O)O)C(=O)N[C@@H](C)C(=O)N[C@@H](CO)C(=O)N1CCC[C@H]1C(=O)N[C@@H](CCC(=O)O)C(=O)N[C@@H](CCC(=O)O)C(=O)N[C@@H](CC(C)C)C(=O)N[C@@H](CCC(N)=O)C(=O)N[C@@H](CCCNC(=N)N)C(=O)N[C@@H](Cc1ccc(O)cc1)C(=O)N[C@@H](Cc1ccc(O)cc1)C(=O)N[C@H](C(=O)N[C@@H](CO)C(=O)N[C@@H](CC(C)C)C(=O)N[C@@H](CCCNC(=N)N)C(=O)N[C@@H](Cc1c[nH]cn1)C(=O)N[C@@H](Cc1ccc(O)cc1)C(=O)N[C@@H](Cc1ccc(O)cc1)C(=O)N[C@@H](CC(N)=O)C(=O)N[C@@H](Cc1c[nH]c2ccccc12)C(=O)N[C@@H](CC(C)C)C(=O)N[C@H](C(=O)N[C@@H](CCCNC(=N)N)C(=O)N[C@@H](CCC(N)=O)C(=O)N[C@@H](CCCNC(=N)N)C(=O)N[C@@H](Cc1ccc(O)cc1)C(N)=O)[C@@H](C)O)C(C)C [Compound 210, N{alpha-4}-(3-methylbutanoyl)-N{epsilon-7}-[2-(2-{2-[2-(2-{2-[(4S)-4-carboxy-4-(17-carboxyheptadecanamido)butanamido]ethoxy}ethoxy)acetamido]ethoxy}ethoxy)acetamido]-[4A,7K,8I,9E,11E,18Q,22V,28Y,30W,31L]hPYY (4-36)] (Isovaleryl-APEK([AEEA-AEEA-γGlu-C18 diacid])IEEEASPEELQRYYVSLRHYYNWLTRQRY-NH2)
20.3 | CC(C)CC(=O)N[C@@H](C)C(=O)N1CCC[C@H]1C(=O)N[C@@H](CCC(=O)O)C(=O)N[C@@H](CCCCNC(=O)COCCOCCNC(=O)COCCOCCNC(=O)CC[C@H](NC(=O)CCCCCCCCCCCCCCCCC(=O)O)C(=O)O)C(=O)N1CCC[C@H]1C(=O)N[C@@H](CCC(=O)O)C(=O)N[C@@H](CCC(=O)O)C(=O)N[C@@H](CC(=O)O)C(=O)N[C@H](C(=O)N[C@@H](C)C(=O)N1CCC[C@H]1C(=O)N[C@@H](CCC(=O)O)C(=O)N[C@@H](CCC(=O)O)C(=O)N[C@@H](CC(C)C)C(=O)N[C@@H](CCC(N)=O)C(=O)N[C@@H](CCCNC(=N)N)C(=O)N[C@@H](Cc1ccc(O)cc1)C(=O)N[C@@H](Cc1ccc(O)cc1)C(=O)N[C@H](C(=O)N[C@@H](CO)C(=O)N[C@@H](CC(C)C)C(=O)N[C@@H](CCCNC(=N)N)C(=O)N[C@@H](Cc1c[nH]cn1)C(=O)N[C@@H](Cc1ccc(O)cc1)C(=O)N[C@@H](Cc1ccc(O)cc1)C(=O)N[C@@H](CC(N)=O)C(=O)N[C@@H](Cc1c[nH]c2ccccc12)C(=O)N[C@@H](CC(C)C)C(=O)N[C@H](C(=O)N[C@@H](CCCNC(=N)N)C(=O)N[C@@H](CCC(N)=O)C(=O)N[C@@H](CCCNC(=N)N)C(=O)N[C@@H](Cc1ccc(O)cc1)C(N)=O)[C@@H](C)O)C(C)C)[C@@H](C)O [Compound 212, N{alpha-4}-(3-methylbutanoyl)-N{epsilon-7}-[2-(2-{2-[2-(2-{2-[(4S)-4-carboxy-4-(17-carboxyheptadecanamido)butanamido]ethoxy}ethoxy)acetamido]ethoxy}ethoxy)acetamido]-[4A,7K,9E,12T,13A,18Q,22V,28Y,30W,31L]hPYY (4-36)]
6.54 | CC(C)CC(=O)N[C@@H](C)C(=O)N1CCC[C@H]1C(=O)N[C@@H](CCC(=O)O)C(=O)N[C@@H](CCCCNC(=O)COCCOCCNC(=O)COCCOCCNC(=O)CC[C@H](NC(=O)CCCCCCCCCCCCCCCCC(=O)O)C(=O)O)C(=O)N1CCC[C@H]1C(=O)N[C@@H](CCC(=O)O)C(=O)N[C@@H](CCC(=O)O)C(=O)N[C@@H](CCC(=O)O)C(=O)N[C@H](C(=O)N[C@@H](CO)C(=O)N1CCC[C@H]1C(=O)N[C@@H](CCC(=O)O)C(=O)N[C@@H](CCC(=O)O)C(=O)N[C@@H](CC(C)C)C(=O)N[C@@H](CCC(N)=O)C(=O)N[C@@H](CCCNC(=N)N)C(=O)N[C@@H](Cc1ccc(O)cc1)C(=O)N[C@@H](Cc1ccc(O)cc1)C(=O)N[C@H](C(=O)N[C@@H](CO)C(=O)N[C@@H](CC(C)C)C(=O)N[C@@H](CCCNC(=N)N)C(=O)N[C@@H](Cc1c[nH]cn1)C(=O)N[C@@H](Cc1ccc(O)cc1)C(=O)N[C@@H](Cc1ccc(O)cc1)C(=O)N[C@@H](CC(N)=O)C(=O)N[C@@H](Cc1c[nH]c2ccccc12)C(=O)N[C@@H](CC(C)C)C(=O)N[C@H](C(=O)N[C@@H](CCCNC(=N)N)C(=O)N[C@@H](CCC(N)=O)C(=O)N[C@@H](CCCNC(=N)N)C(=O)N[C@@H](Cc1ccc(O)cc1)C(N)=O)[C@@H](C)O)C(C)C)[C@@H](C)O [Compound 213, N{alpha-4}-(3-methylbutanoyl)-N{epsilon-7}-[2-(2-{2-[2-(2-{2-[(4S)-4-carboxy-4-(17-carboxyheptadecanamido)butanamido]ethoxy}ethoxy)acetamido]ethoxy}ethoxy)acetamido]-[4A,7K,9E,11E,12T,18Q,22V,28Y,30W,31L]hPYY (4-36)] (Isovaleryl-APEK([AEEA-AEEA-γGlu-C18 diacid])PEEETSPEELQRYYVSLRHYYNWLTRQRY-NH2)
0.48 | CC(C)CC(=O)N[C@@H](C)C(=O)N1CCC[C@H]1C(=O)N[C@@H](CCC(=O)O)C(=O)N[C@@H](CCCCNC(=O)COCCOCCNC(=O)COCCOCCNC(=O)CC[C@H](NC(=O)CCCCCCCCCCCCCCCCC(=O)O)C(=O)O)C(=O)N1CCC[C@H]1C(=O)N[C@@H](CCC(=O)O)C(=O)N[C@@H](CCC(=O)O)C(=O)N[C@@H](CC(=O)O)C(=O)N[C@@H](C)C(=O)N[C@@H](CO)C(=O)N1CCC[C@H]1C(=O)N[C@@H](C)C(=O)N[C@@H](CCC(=O)O)C(=O)N[C@@H](CC(C)C)C(=O)N[C@@H](CCC(N)=O)C(=O)N[C@@H](CCCNC(=N)N)C(=O)N[C@@H](Cc1ccc(O)cc1)C(=O)N[C@@H](Cc1ccc(O)cc1)C(=O)N[C@H](C(=O)N[C@@H](CCC(=O)O)C(=O)N[C@@H](CC(C)C)C(=O)N[C@@H](CCCNC(=N)N)C(=O)N[C@@H](Cc1c[nH]cn1)C(=O)N[C@@H](Cc1ccc(O)cc1)C(=O)N[C@@H](Cc1ccc(O)cc1)C(=O)N[C@@H](CC(N)=O)C(=O)N[C@@H](Cc1c[nH]c2ccccc12)C(=O)N[C@@H](CC(C)C)C(=O)N[C@H](C(=O)N[C@@H](CCCNC(=N)N)C(=O)N[C@@H](CCC(N)=O)C(=O)N[C@@H](CCCNC(=N)N)C(=O)N[C@@H](Cc1ccc(O)cc1)C(N)=O)[C@@H](C)O)C(C)C [Compound 215, N{alpha-4}-(3-methylbutanoyl)-N{epsilon-7}-[2-(2-{2-[2-(2-{2-[(4S)-4-carboxy-4-(17-carboxyheptadecanamido)butanamido]ethoxy}ethoxy)acetamido]ethoxy}ethoxy)acetamido]-[4A,7K,9E,15A,18Q,22V,23E,28Y,30W,31L]hPYY (4-36)]
